{"source": "ChEMBL document CHEMBL3758147", "about": "“1,9-seco-Bicyclic Polyprenylated Acylphloroglucinols from Hypericum uralum” (J Nat Prod, 2015)"}
{"biological_target": "Acetylcholinesterase (Homo sapiens, UniProt P22303)", "sequence (P22303 whole entry)": "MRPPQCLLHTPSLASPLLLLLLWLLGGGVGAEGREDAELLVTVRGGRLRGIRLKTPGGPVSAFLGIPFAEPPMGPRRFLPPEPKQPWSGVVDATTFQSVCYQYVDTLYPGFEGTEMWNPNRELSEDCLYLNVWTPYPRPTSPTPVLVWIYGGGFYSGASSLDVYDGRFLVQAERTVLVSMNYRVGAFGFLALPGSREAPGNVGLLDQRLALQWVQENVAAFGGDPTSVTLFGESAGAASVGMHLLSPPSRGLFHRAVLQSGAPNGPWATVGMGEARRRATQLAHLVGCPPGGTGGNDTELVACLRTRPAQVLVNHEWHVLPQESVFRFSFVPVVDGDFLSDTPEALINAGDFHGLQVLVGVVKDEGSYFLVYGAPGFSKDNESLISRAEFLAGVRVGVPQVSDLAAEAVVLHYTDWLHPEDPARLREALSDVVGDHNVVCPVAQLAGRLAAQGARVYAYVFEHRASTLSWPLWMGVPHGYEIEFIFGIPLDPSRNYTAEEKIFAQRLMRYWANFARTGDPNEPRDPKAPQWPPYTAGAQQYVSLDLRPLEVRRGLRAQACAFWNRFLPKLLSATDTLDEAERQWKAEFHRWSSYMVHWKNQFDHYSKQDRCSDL", "assay": "(§1) Inhibition of human erythrocyte AChE using acetylthiocholine as substrate assessed as substrate hydrolysis preincubated for 20 mins followed by substrate addition measured after 30 mins by Ellman's assay", "conditions": "not given; call rule not given here"}
{"smiles": "CC(C)=CCC1=C2OC(C)(C)[C@H](O)[C@H]3/C=C(/C)[C@@H](CC=C(C)C)C[C@](CC=C(C)C)(C1=O)C(=O)[C@]23C(=O)c1ccccc1", "IC50": "Not Active"}
{"smiles": "CC(C)=CC[C@H]1C[C@@]2(CC=C(C)C)C(=O)O[C@@](CC=C(C)C)(C(=O)[C@@H](C(=O)C(C)C)[C@]1(C)C/C=C/C(C)(C)OO)C2=O", "IC50": "Not Active"}
{"smiles": "CCC(C)C(=O)[C@@H]1C(=O)[C@]2(CC=C(C)C)OC(=O)[C@](C/C=C(\\C)CCC=C(C)C)(C[C@@H](CC=C(C)C)C1(C)C)C2=O", "note": "(some centres not stated)", "IC50": "Not Active"}
{"smiles": "CC(C)=CCC[C@]1(C)[C@@H](CC=C(C)C)C[C@@]2(CC=C(C)C)C(=O)O[C@@](CC=C(C)C)(C(=O)[C@H]1C(=O)C(C)C)C2=O", "IC50": "Not Active"}
{"smiles": "CC(C)=CCC[C@]1(C)[C@@H](CC=C(C)C)C[C@H](CC=C(C)C)C(=O)[C@](O)(CC=C(C)C)C(=O)[C@H]1C(=O)C(C)C", "IC50": "Not Active"}
{"smiles": "CC(C)=CCC/C(C)=C/C[C@]12C[C@@H](CC=C(C)C)C(C)(C)[C@H](C(=O)C(C)C)C(=O)[C@](CC=C(C)C)(OC1=O)C2=O", "IC50": "Not Active"}
{"smiles": "CCC(C)C(=O)[C@@H]1C(=O)[C@]2(CC=C(C)C)OC(=O)[C@](CC=C(C)C)(C[C@H](CC=C(C)C)[C@@]1(C)C/C=C/C(C)(C)OO)C2=O", "note": "(some centres not stated)", "IC50": "Not Active"}
{"smiles": "CC(C)=CC[C@H]1C[C@@]2(CC=C(C)C)C(=O)O[C@](CC=C(C)C)(C2=O)C(=O)[C@]23C(=O)c4ccccc4C(C)(C)[C@H]2CC[C@]13C", "IC50": "Not Active"}
{"smiles": "CC(C)=CC[C@H]1C[C@@]23C[C@H]4C(C)(C)c5ccccc5C(=O)[C@]45C(=O)C(CC=C(C)C)(C[C@@]1(C/C=C/C(C)(C)O)C25O)C3=O", "IC50": "Not Active"}
{"smiles": "CC(C)=CC[C@H]1C[C@@]2(CC=C(C)C)C(=O)C3(CC=C(C)C)CC14C[C@@H](C=C(C)C)C(C(=O)c1ccccc1)(C3=O)C42O", "IC50": "Not Active"}
{"biological_target": "Acetylcholinesterase (Homo sapiens, UniProt P22303)", "assay": "as §1", "conditions": "read-out: IC50", "units": {"IC50": "µM"}}
{"smiles": "CCC(C)C(=O)[C@@H]1C(=O)[C@]2(CC=C(C)C)OC(=O)[C@](CC=C(C)C)(C[C@H](CC=C(C)C)[C@@]1(C)C/C=C/C(C)(C)O)C2=O", "note": "(some centres not stated)", "IC50": 7.1}
{"smiles": "CC(C)=CC[C@H]1C[C@@]2(CC=C(C)C)C(=O)O[C@@](CC=C(C)C)(C(=O)[C@@H](C(=O)C(C)C)[C@]1(C)C/C=C/C(C)(C)O)C2=O", "IC50": 9.6}
